{"source": "patent US7183369B1", "about": "“Injectible bodily prosthetics employing methacrylic copolymer gels” (Iowa State University Research Foundation, Inc., priority 2003, dated 2007)", "tested_on": "NIH/3T3 mouse fibroblasts", "assay": "Elution cytotoxicity test", "format": "cell-based", "experimental": "Elution tests were performed on one sample of the pentablock material to assess the cytotoxic properties of the pentablock copolymers. Approximately 30 mg of the polymers to be tested were dissolved in 100 ml of low-glucose Dulbecco's modified eagle medium (DMEM, Sigma) with 10% fetal bovine serum (FBS, Sigma), 10 μg/ml insulin (Sigma), 10 units/ml penicillin/streptomycin (Sigma), and 100 μg/ml L-ascorbic acid (Sigma). This solution was diluted to achieve the desired polymer concentration for all tests.\nNIH/3T3 mouse fibroblasts were grown in polystyrene flasks until reaching confluence at 150 cells/mm. The growth media was removed from the flasks and replaced with one of the following: DMEM (negative control), DMEM with phenol (positive control), DMEM with the pentablock material. The concentrations of the pentablock material and phenol were 3 mg/L, 0.3 mg/L and 0.03 mg/L.\nAfter 24 hours of incubation in a humidified incubator with 5% CO2 at 37° C. the samples were removed and the media was replaced with Karnovsky's fixative (2.5% glutaraldehyde, 2.0% paraformaldehyde, 0.1M sodium cacodylate) for 12 hours. The samples were then stained with a 20% crystal violet dye (CVD) solution in ethanol for 6 hours followed by dehydration with ethanol. […]", "data": [{"substance": "PDEAEM-b-PEO-b-PPO-b-PEO-b-PDEAEM [pentablock copolymer]", "values": [{"measurement": "cell adhesion to polystyrene substrate and confluence after test period", "result": "good adhesion to the polystyrene cell culture substrate and the cells remained confluent"}]}]}
